Like-named read-outs stand apart in the source and are kept apart here.
Test system: JAK1/TYK2 pSTAT5 (Tyr694/699) in THP-1 cell line
Assay: IFNa-stimulated JAK1/TYK2 pSTAT5 (Tyr694/699) inhibition cellular assay, AlphaLISA
Assay type: cell-based
Conditions: THP-1 cells, AlphaLISA (Assay B)
Description: Assay B: JAK1/TYK2 pSTAT5 (Tyr694/699) inhibition IC50 Cellular Assays
To evaluate the inhibition effect of compounds disclosed herein against TYK2, an IFNa-stimulated JAE1/TYK2 pSTAT5 (Tyr694/699) quantification assay was conducted in the THP-1 cell line using an AlphaLISA detection method (PerkinElmer ALSU-PST5). Compounds in DMSO were serially diluted in a 96-well plate (10 mM starting concentration, 6-fold dilutions, 8 concentrations total) prior to dispensing of 8 nL into a 384-well plate using an I.DOT non-contact liquid handler (Dispendix). Cells were collected via centrifugation at 300 ref for 5 min and resuspended in Hanks' Balanced Salt Solution (Gibco 14175-079), and 6 μl containing 2e4 cells was dispensed into each well of the 384-well plate containing test compounds or DMSO alone (final concentrations: 10000, 1666.67, 277.78, 46.30, 7.72, 1.29, 0.21 and 0.04 nM). Cells were then incubated for 1 h at 37° C. with 5% CO2 prior to the addition of 2 μL IFNa (100 ng/mL; PBL Assay Science 11175-1). Following an additional 30 min incubation at 37° C. with 5% CO2, 2 μL of 5× lysis buffer was added to each well using the I.DOT […]. Plates were sealed and incubated at RT for 10 min on a plate shaker set to 400 RPM. Cell lysates were then frozen at −80° C. before subsequent detection of pSTAT5 by AlphaLISA. At the time of the detection assay, cell lysates were thawed for 5 min at room temperature and then on a plate shaker set to 400 RPM for an additional 10 min. Following the manufacturer recommended protocol (Perkin Elmer), 5 μL of acceptor bead master mix was added to each well; plates were then resealed and incubated for 2 min at RT on a plate shaker (400 rpm) prior to an additional 2-h incubation without agitation (protected from light). Donor bead master mix, 5 uL per well, was then added to each well before 2 min of shaking (RT, 400 rpm) and 2-h incubation (RT, no shaking, protected from light). Levels of pSTAT5 protein were then measured as fluorescent signal at 615 nm with an EnVision multimode plate reader (Perkin Elmer). IC50 values were calculated in Dotmatics using the four-parameter logistic curve regression model with bottom fixed to 0 and Hill Slope fixed to −1.

[1] = Homo sapiens, IFNa-stimulated, read-out: Cellular_THP1_IFNa-pSTATS_TYK2
[2] = Homo sapiens, IFNa-stimulated pSTAT5 (Tyr694/699), read-out: Cellular_THP1_IFNa-pSTATS_TYK2

SMILES	IC50 [1] [nM]	further results
CNc1ncc(/C=C/c2ccccc2OC)c2cc(NC(=O)C3CC3)ncc12 [Example 174, (E)-N-(5-(2-methoxystyryl)-8-(methylamino)-2,7-naphthyridin-3-yl)cyclopropanecarboxamide]	–	IC50 (Homo sapiens, IFNa-stimulated, read-out: Cellular THP1_IFNa-pSTATS_IC50): ≤ 500 nM
CNc1ncc(-c2nc3cnc(C(F)F)cc3o2)c2cc(NC(=O)C3CC3)ncc12 [Example 461, N-(5-(6-(difluoromethyl)oxazolo[4,5-c]pyridin-2-yl)-8-(methylamino)-2,7-naphthyridin-3-yl)cyclopropanecarboxamide]	≤ 500	–
CNc1ncc(-c2nc3cc(-c4ncnn4C)ccc3o2)c2cc(NC(=O)C3CC3)ncc12 [Example 465]	–	IC50 (IFNa-stimulated, read-out: Cellular_THP1_IFNa-pSTATS_TYK2): ≤ 500 nM
CCNc1ncc(-c2nc3cc(N4CC5CNCC(C4)O5)ccc3o2)c2cc(NC(=O)C3CC3)ncc12 [Example 466, N-(5-(5-(9-oxa-3,7-diazabicyclo[3.3.1]nonan-3-yl)benzo[d]oxazol-2-yl)-8-(ethylamino)-2,7-naphthyridin-3-yl)cyclopropanecarboxamide]	≤ 500	–
CNc1ncc(-c2cc3ccc(N4CCO[C@@H](C)C4)cn3n2)c2cc(NC(=O)C3CC3)ncc12 [Example 797, (S)—N-(8-(methylamino)-5-(6-(2-methylmorpholino)pyrazolo[1,5-a]pyridin-2-yl)-2,7-naphthyridin-3-yl)cyclopropanecarboxamide]	≤ 500	–
CNc1ncc(C#Cc2ccc(C(C)(C)O)cc2)c2cc(NC(=O)C3CC3)ncc12 [Example 802, N-(5-((4-(2-hydroxypropan-2-yl)phenyl)ethynyl)-8-(methylamino)-2,7-naphthyridin-3-yl)cyclopropanecarboxamide]	≤ 500	–
CNc1ncc(C#Cc2ccc3c(c2)CC(=O)N3C)c2cc(NC(=O)C3CC3)ncc12 [Example 803, N-(5-((1-methyl-2-oxoindolin-5-yl)ethynyl)-8-(methylamino)-2,7-naphthyridin-3-yl)cyclopropanecarboxamide]	≤ 500	–
CNc1ncc(C#Cc2ccc3nc(CF)n(C)c3c2)c2cc(NC(=O)C3CC3)ncc12 [Example 810, N-(5-((2-(fluoromethyl)-1-methyl-1H-benzo[d]imidazol-6-yl)ethynyl)-8-(methylamino)-2,7-naphthyridin-3-yl)cyclopropanecarboxamide]	≤ 500	–
CNc1ncc(C#Cc2ccc(CN3CCO[C@@H](C)C3)cc2)c2cc(NC(=O)C3CC3)ncc12 [Example 814, (S)—N-(8-(methylamino)-5-((4-((2-methylmorpholino)methyl)phenyl)ethynyl)-2,7-naphthyridin-3-yl)cyclopropanecarboxamide]	≤ 500	–
CNc1ncc(-c2nc3cc(N4CCO[C@@H](C)C4)ccc3o2)c2cc(NC(=O)[C@H]3C[C@H]3C)nnc12 [Example 891, (1S,2R)-2-methyl-N-(8-(methylamino)-5-(5-((S)-2-methylmorpholino)benzo[d]oxazol-2-yl)pyrido[3,4-c]pyridazin-3-yl)cyclopropane-1-carboxamide]	≤ 500	–
CNc1ncc(-c2nc3ccc(N4CCOCC4)cn3n2)c2cc(Nc3ccccn3)nnc12 [Example 892, N^8-methyl-5-(6-morpholino-[1,2,4]triazolo[1,5-a]pyridin-2-yl)-N^3-(pyridin-2-yl)pyrido[3,4-c]pyridazine-3,8-diamine]	≤ 500	–
CNc1ncc(C#Cc2ccc(CN3CCC3)cn2)c2cc(NC(=O)C3CC3)ncc12 [Example 905, N-(5-((5-(azetidin-1-ylmethyl)pyridin-2-yl)ethynyl)-8-(methylamino)-2,7-naphthyridin-3-yl)cyclopropanecarboxamide]	≤ 500	–
CNc1ncc(C#Cc2ccc(CN3CC(F)(F)C3)cn2)c2cc(NC(=O)C3CC3)ncc12 [Example 906, N-(5-((5-((3,3-difluoroazetidin-1-yl)methyl)pyridin-2-yl)ethynyl)-8-(methylamino)-2,7-naphthyridin-3-yl)cyclopropanecarboxamide]	≤ 500	–
CNc1ncc(C#Cc2ccc(Cn3cccn3)cn2)c2cc(NC(=O)C3CC3)ncc12 [Example 907, N-(5-((5-((1H-pyrazol-1-yl)methyl)pyridin-2-yl)ethynyl)-8-(methylamino)-2,7-naphthyridin-3-yl)cyclopropanecarboxamide]	≤ 500	–
CNc1ncc(C#Cc2ccc(Cn3nccn3)cn2)c2cc(NC(=O)C3CC3)ncc12 [Example 908, N-(5-((5-((2H-1,2,3-triazol-2-yl)methyl)pyridin-2-yl)ethynyl)-8-(methylamino)-2,7-naphthyridin-3-yl)cyclopropanecarboxamide]	≤ 500	–
CNc1ncc(C#Cc2ccc(Cn3ccnn3)cn2)c2cc(NC(=O)C3CC3)ncc12 [Example 909, N-(5-((5-((1H-1,2,3-triazol-1-yl)methyl)pyridin-2-yl)ethynyl)-8-(methylamino)-2,7-naphthyridin-3-yl)cyclopropanecarboxamide]	≤ 500	–
CNc1ncc(C#Cc2ccc(C(C)(C)C#N)cc2)c2cc(NC(=O)C3CC3)ncc12 [Example 910, N-(5-((4-(2-cyanopropan-2-yl)phenyl)ethynyl)-8-(methylamino)-2,7-naphthyridin-3-yl)cyclopropanecarboxamide]	≤ 500	–
CNc1ncc(C#Cc2ccc(CC#N)cn2)c2cc(NC(=O)C3CC3)ncc12 [Example 911, N-(5-((5-(cyanomethyl)pyridin-2-yl)ethynyl)-8-(methylamino)-2,7-naphthyridin-3-yl)cyclopropanecarboxamide]	≤ 500	–
CNc1ncc(C#Cc2ccc(CN3CC(OC)C3)cn2)c2cc(NC(=O)C3CC3)ncc12 [Example 912, N-(5-((5-((3-methoxyazetidin-1-yl)methyl)pyridin-2-yl)ethynyl)-8-(methylamino)-2,7-naphthyridin-3-yl)cyclopropanecarboxamide]	≤ 500	–
CNc1ncc(-c2nc3ncc(C)cc3o2)c2cc(NC(=O)C3CC3)ncc12 [Example 1104, N-(8-(methylamino)-5-(6-methyloxazolo[4,5-b]pyridin-2-yl)-2,7-naphthyridin-3-yl)cyclopropanecarboxamide]	–	IC50 [2]: ≤ 500 nM
CNc1ncc(C#Cc2nccc3cc(F)ccc23)c2cc(NC(=O)C3CC3)ncc12 [Example 1135, N-(5-((6-fluoroisoquinolin-1-yl)ethynyl)-8-(methylamino)-2,7-naphthyridin-3-yl)cyclopropanecarboxamide]	–	IC50 [2]: ≤ 500 nM
CNc1ncc(C#Cc2ccc3c(=O)n(C)ccc3c2)c2cc(NC(=O)C3CC3)ncc12 [Example 1136, N-(5-((2-methyl-1-oxo-1,2-dihydroisoquinolin-6-yl)ethynyl)-8-(methylamino)-2,7-naphthyridin-3-yl)cyclopropanecarboxamide]	–	IC50 [2]: ≤ 500 nM
CNc1ncc(C#Cc2cccc3c2CNCC3)c2cc(NC(=O)C3CC3)ncc12 [Example 1137, N-(8-(methylamino)-5-((1,2,3,4-tetrahydroisoquinolin-8-yl)ethynyl)-2,7-naphthyridin-3-yl)cyclopropanecarboxamide]	–	IC50 [2]: > 500 nM
CNc1ncc(C#Cc2cn(C(F)F)c(C)n2)c2cc(NC(=O)[C@H]3C[C@H]3C)ncc12 [Example 1139, (1S,2R)—N-(5-((1-(difluoromethyl)-2-methyl-1H-imidazol-4-yl)ethynyl)-8-(methylamino)-2,7-naphthyridin-3-yl)-2-methylcyclopropanecarboxamide]	–	IC50 [2]: ≤ 500 nM
CNc1ncc(C#Cc2cnc(C)n2C(F)F)c2cc(NC(=O)[C@H]3C[C@H]3C)ncc12 [Example 1140, (1S,2R)—N-(5-((1-(difluoromethyl)-2-methyl-1H-imidazol-5-yl)ethynyl)-8-(methylamino)-2,7-naphthyridin-3-yl)-2-methylcyclopropanecarboxamide]	–	IC50 [2]: ≤ 500 nM

Reference: patent US20240025906A1 (NEURON23, INC., priority 2022, published 2024)
